Values joined by “and” are separate entries in the source; they are usually repeats but may differ in a detail not shown here. Equal entries are not always repeated. Where two headings read alike, the source gives them in different places.
Key:
UGT2B7 [1] = details: cited from earlier work; for effect on UGT2B7 in vitro (in words): 19 (curcumin), 37, 70 (ketamine), 19, 20, 22, 23 (andrographolide); for UGT2B7, in vitro study: supersomes
UGT nonspecific [2] = system: UGT nonspecific; design: method as in PMID 28479734; details: system not given; cited from earlier work
UGT2B7 [3] = system: UGT2B7; design: method as in PMID 29425147; details: by inhibiting UGT2B7 activity; cited from earlier work
UGT2B7 [4] = target: T1, UGT2B7 (Homo sapiens, UniProt P16662); assay: Inhibition of ZDV glucuronidation in human liver microsomes (HLM)
T1 sequence (P16662 24-529): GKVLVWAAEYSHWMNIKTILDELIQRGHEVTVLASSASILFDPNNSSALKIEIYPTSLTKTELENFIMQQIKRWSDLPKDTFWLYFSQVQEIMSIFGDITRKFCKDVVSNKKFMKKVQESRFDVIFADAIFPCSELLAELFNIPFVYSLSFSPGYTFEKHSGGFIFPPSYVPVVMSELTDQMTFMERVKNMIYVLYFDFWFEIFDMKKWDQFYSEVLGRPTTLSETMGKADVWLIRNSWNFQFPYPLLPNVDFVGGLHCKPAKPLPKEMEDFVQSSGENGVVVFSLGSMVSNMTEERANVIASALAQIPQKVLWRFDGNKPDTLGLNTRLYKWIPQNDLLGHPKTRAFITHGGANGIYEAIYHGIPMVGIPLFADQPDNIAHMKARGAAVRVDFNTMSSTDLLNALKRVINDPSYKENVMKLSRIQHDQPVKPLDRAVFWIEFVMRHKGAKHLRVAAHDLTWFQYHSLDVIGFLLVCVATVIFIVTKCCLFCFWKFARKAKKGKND
Method: (§1) An incubation mixture in a total volume of 200 µL contained 100 mM Tris-HCl buffer at pH 7.4, 5 mM MgCl2, microsomal protein (0.2 mg/mL for HLM assay and 2 mg/mL for RLM assay) and 0.1 mg/mg protein of Brij58 was kept in ice for 10 min. […] The incubation volume was made up to 200 µL with distilled water in a 1.5 mL polypropylene microcentrifuge tube. After pre-incubation at 37 °C for 10 min in a shaking water bath, a reaction was started by the addition of 5 mM UDPGA and was further incubated (120 min for HLM and 90 min for RLM). Following the incubation, the reaction was terminated by adding 100 µL ice-cold acetonitrile containing 75 µM of 4MUG as the internal standard (IS). The sample was allowed for protein precipitation on ice for 15 min, then vortexed shortly, and centrifuged at 15,000 rpm for 10 min at 4 °C. Supernatant was transferred into HPLC vials for HPLC analysis.
Stock solutions for the herbal constituents were prepared at concentrations of 50 mM by dissolving them in their respective solvents. […] Working solutions were prepared at concentrations of 5 mM in distilled water so that the final organic solvent concentrations in incubations were less than 2% (v/v).
(§2) Thirteen herbal constituents were screened for inhibition of ZDV glucuronidation in HLM and RLM. Screening experiments using three concentrations (1 µM, 10 µM and 100 µM) of each herbal constituent were conducted to screen for the inhibitory potential of the constituent. All incubation assays were performed in triplicate (n = 3).
(§3) The ZDVG concentration formed was quantified using the calibration curve of ZDVG. Final UGT2B7 specific activity value was expressed in pmol/min/mg protein. […] Km and Vmax were determined using the same software under the enzyme-kinetic inhibition (substrate inhibition) model.

UGT2B7 [5] = assay: Inhibition of ZDV glucuronidation in rat liver microsomes (RLM); details: for IC50 at 90 min: rat
Method: The livers were rinsed promptly with ice-cold distilled water followed by ice-cooled 67 mM potassium phosphate buffer (pH 7.4) containing 1.15% (w/v) KCl after removal from the rats. The livers were then homogenized in three volumes of the same buffer using Potter-Elvehjem homogenizer after blotted dry and weighed. After that, the homogenate was centrifuged at 12,500× g for 20 min at 4 °C. The resultant supernatant was further centrifuged at 100,000× g for 60 min at 4 °C to obtain the microsomal pellets. Each pellet obtained was scrapped and reconstituted in 0.3 mL of 67 mM potassium phosphate buffer with 1.15% (w/v) KCl and 20% (v/v) glycerol before homogenizing them together to obtain pooled microsomes. Microsomes were then transferred into several microfuge tubes and stored at −80 °C until used.
as §1
Stock solutions for the herbal constituents were prepared at concentrations of 50 mM by dissolving them in their respective solvents. Andrographolide, arecoline, arecaidine, mangiferin and vanillin were dissolved in distilled water. […] Working solutions were prepared at concentrations of 5 mM in distilled water so that the final organic solvent concentrations in incubations were less than 2% (v/v).
as §2
The ZDVG concentration formed was quantified using the calibration curve of ZDVG. Final UGT2B7 specific activity value was expressed in pmol/min/mg protein.

[6] = system: gluthathione-S-transferases enzyme; design: method as in PMID 15304356; details: in vitro; cited from earlier work
CYP3A4 = system: CYP3A4; design: method as in PMID 15270556; details: in vitro; cited from earlier work
UGT enzymes = details: cited from earlier work; for inhibition of UGT enzymes in HLM with 4MU as substrate (in words): 4MU nonspecific UGT substrate
UGT nonspecific [7] = system: UGT nonspecific; design: method as in ref 19-24 (andrographolide); 35-37 (mitragynine); 26, 27, 29, 31, 38, 39 (quercetin); details: rats; ref 19-24 (andrographolide); 35-37 (mitragynine); 26, 27, 29, 31, 38, 39 (quercetin); cited from earlier work
HLM = system: HLM; design: method as in PMID 25204783; details: cited from earlier work
UGT2B7 [8] = target: T1, UGT2B7; design: method as in PMID 24631340; details: non-competitive inhibition; read-out: inhibition constant (Ki) for ZDV glucuronidation in HLM; cited from earlier work
[9] = cited from earlier work; for maximum plasma concentration: humans
UGT nonspecific [10] = system: UGT nonspecific; design: method as in ref 26-30 (kaempferol); 26, 27, 29, 31, 38, 39 (quercetin); details: mammalian cells; ref 26-30 (kaempferol); 26, 27, 29, 31, 38, 39 (quercetin); cited from earlier work
UGT2B17 = details: supersomes; ref 31 (gallic acid); 32-34 (mangiferin); 26, 27, 29, 31, 38, 39 (quercetin); cited from earlier work
UGT1A1 [11] = system: UGT1A1; design: method as in ref 26-30 (kaempferol); 35-37 (mitragynine); 26, 27, 29, 31, 38, 39 (quercetin); details: supersomes; ref 26-30 (kaempferol); 35-37 (mitragynine); 26, 27, 29, 31, 38, 39 (quercetin); cited from earlier work
UGT1A1 [12] = system: UGT1A1; design: method as in ref 26-30 (kaempferol); 26, 27, 29, 31, 38, 39 (quercetin); details: mammalian cells; ref 26-30 (kaempferol); 26, 27, 29, 31, 38, 39 (quercetin); cited from earlier work
UGT1A3 = system: UGT1A3; design: method as in ref 19-24 (andrographolide); 26-30 (kaempferol); 32-34 (mangiferin); 26, 27, 29, 31, 38, 39 (quercetin); details: supersomes; ref 19-24 (andrographolide); 26-30 (kaempferol); 32-34 (mangiferin); 26, 27, 29, 31, 38, 39 (quercetin); cited from earlier work
UGT1A9 = details: HLM, supersomes, cited from earlier work
UGT1A6 [13] = system: UGT1A6; design: method as in PMID 18001207, PMID 19889883, PMID 24553666, PMID 22958586, PMID 10660112; details: mammalian cells; cited from earlier work
[14] = humans, cited from earlier work
UGT2B7 [15] = assay: ZDV glucuronidation kinetics in RLM; details: for Km at 90 min / microsomal CLint: rat; for Km at 90 min: pH 7.4, Km; for microsomal CLint: rat liver microsomes (pooled), pH 7.4, CLint, Vmax/Km
Method: as §1
Once the initial velocity conditions had been established, the ZDV concentrations were varied to generate a saturation curve for determination of Michaelis constant (Km) and maximal velocity of reaction (Vmax) values of ZDV glucuronidation in HLM and RLM. The experiments were conducted in the absence and presence of BSA. Under optimized conditions, substrate concentrations used in incubation assay were varied from 0–5 mM of ZDV for HLM assay and 0–30 mM of ZDV for RLM assay. All assays were performed in triplicates (n = 3). The enzyme kinetic parameters (Km and Vmax) were obtained by fitting kinetic models to the experimental data using GraphPad Prism version 5.01 for Windows.
as §3

UGT2B7 [16] = target: T1, UGT2B7; assay: in vitro; details: HLM; for microsomal CLint: human liver microsomes, pH 7.4, CLint, Vmax/Km; for Km at 120 min: pH 7.4, Km, mean ± SD
Method: An incubation mixture in a total volume of 200 µL contained 100 mM Tris-HCl buffer at pH 7.4, 5 mM MgCl2, microsomal protein (0.2 mg/mL for HLM assay and 2 mg/mL for RLM assay) and 0.1 mg/mg protein of Brij58 was kept in ice for 10 min. […] The incubation volume was made up to 200 µL with distilled water in a 1.5 mL polypropylene microcentrifuge tube. After pre-incubation at 37 °C for 10 min in a shaking water bath, a reaction was started by the addition of 5 mM UDPGA and was further incubated (120 min for HLM and 90 min for RLM). […] The sample was allowed for protein precipitation on ice for 15 min, then vortexed shortly, and centrifuged at 15,000 rpm for 10 min at 4 °C. Supernatant was transferred into HPLC vials for HPLC analysis.
Once the initial velocity conditions had been established, the ZDV concentrations were varied to generate a saturation curve for determination of Michaelis constant (Km) and maximal velocity of reaction (Vmax) values of ZDV glucuronidation in HLM and RLM. The experiments were conducted in the absence and presence of BSA. Under optimized conditions, substrate concentrations used in incubation assay were varied from 0–5 mM of ZDV for HLM assay and 0–30 mM of ZDV for RLM assay. All assays were performed in triplicates (n = 3).
as §3

[17] = rats, cited from earlier work
UGT1A1 [18] = system: UGT1A1; design: method as in PMID 18001207, PMID 19889883, PMID 25008344, PMID 24553666, PMID 29574133; details: mice; cited from earlier work
UGT1A6 [19] = system: UGT1A6; design: method as in ref 19-24 (andrographolide); 26-30 (kaempferol); 32-34 (mangiferin); 26, 27, 29, 31, 38, 39 (quercetin); details: supersomes; ref 19-24 (andrographolide); 26-30 (kaempferol); 32-34 (mangiferin); 26, 27, 29, 31, 38, 39 (quercetin); cited from earlier work
UGT2B10 = system: UGT2B10; design: method as in ref 26-30 (kaempferol); 26, 27, 29, 31, 38, 39 (quercetin); details: supersomes; ref 26-30 (kaempferol); 26, 27, 29, 31, 38, 39 (quercetin); cited from earlier work
[20] = IC50 for inhibition of ZDV glucuronidation in HLM, human liver microsomes, ZDV as UGT2B7 probe substrate, 1% (w/v) BSA
[21] = concentration showing 50% inhibition of ZDV glucuronidation in HLM (screening), screening at 1 µM, 10 µM and 100 µM

For `CNC1(c2ccccc2Cl)CCCCC1=O` (stereo not drawn) [ketamine, reference compound], the “effect on UGT2B7 in vitro (in words)” value (UGT2B7 [1]) is listed as “inhibit”.
In the case of `COc1cc(C=O)ccc1O` [Vanillin], the “UGT nonspecific, in vitro study” value (UGT nonspecific [2]) is given as “UGT nonspecific ↓”.
In the case of `C[C@@H]1[C@H]2c3cc4c(cc3O[C@@]35OCOC3=CC(=O)[C@H](C[C@H]1C)[C@@H]25)OCO4` [sauchinone], the “effect on zidovudine (ZDV) concentration in mice blood (in words)” value (UGT2B7 [3]) is listed as “elevated”.
In the case of `C/C1=C\CC(C)(C)/C=C/C(=O)/C(C)=C/CC1` [zerumbone], the IC50 (UGT2B7 [4]; [20]) is reported as 4.57 ± 0.23 µM, the IC50 (UGT2B7 [4]; [21]) is reported as less than 100 µM and the IC50 at 90 min (UGT2B7 [5]; rat liver microsomes (pooled), pH 7.4, probe zidovudine (ZDV), at or below its Km, IC50 for inhibition of ZDV glucuronidation in RLM, rat liver microsomes, ZDV as probe substrate, 1% (w/v) BSA) is reported as 8.14 ± 2.12 µM. The IC50 at 90 min (UGT2B7 [5]; rat liver microsomes (pooled), pH 7.4, probe zidovudine (ZDV), at or below its Km, concentration inhibiting ZDV glucuronidation in RLM higher than 50% (screening), screening at 1 µM, 10 µM and 100 µM) was less than 100 µM, the “effect on Phase II gluthathione-S-transferases enzyme (in words)” value [6] was “induce” and the “effect on metabolism mediated by CYP3A4 (in words)” value (CYP3A4) was “moderately inhibit”.
In the case of `C=C1CC[C@@H]2[C@](C)(CO)[C@H](O)CC[C@@]2(C)[C@@H]1C/C=C1/C(=O)OC[C@H]1O` [Andrographolide, andrographolide], the “inhibition of UGT enzymes in HLM with 4MU as substrate (in words)” value (UGT enzymes) is listed as “weak inhibition”, the “effect on UGT2B7 in vitro (in words)” value (UGT2B7 [1]) is listed as “inhibit” and the “UGT2B7, in vitro study” value (UGT2B7 [1]; HLM) is listed as “UGT2B7 ↓ (HLM, supersomes)”. For the same compound, the IC50 (UGT2B7 [4]; [20]) was 6.18 ± 1.27 µM, the IC50 (UGT2B7 [4]; [21]) was less than 100 µM and the “inhibition of ZDV glucuronidation in RLM (in words)” value (UGT2B7 [5]; rat liver microsomes) was “weak inhibition”. The “UGT nonspecific, in vivo/ex vivo study” value (UGT nonspecific [7]) was “UGT nonspecific ↑ (rats)”, the “glucuronidation as a substrate in HLM (in words)” value (HLM) was “glucuronidated” and the Ki (UGT2B7 [8]) was 6.1 µM. For the same compound, the maximum plasma concentration ([9]; oral 20 mg of andrographolide four times a day) was 1.34 µg/mL and 3.8 µM, the “maximum concentration in plasma” value ([9]; ingestion of 32.64 mg of andrographolide three times a day) was 32.41 ng/mL and 0.09 µM and the “maximum concentration in plasma” value ([9]; ingestion of 200 mg of andrographolide three times a day) was 58.6 ng/mL and 0.17 µM.
In the case of `O=c1c(O)c(-c2ccc(O)c(O)c2)oc2cc(O)cc(O)c12` [Quercetin, quercetin], the “UGT nonspecific, in vitro study” value (UGT nonspecific [10]) is given as “UGT nonspecific ↑ (mammalian cells)”, the “UGT2B17, in vitro study” value (UGT2B17) is given as “UGT2B17 ↓ (supersomes)” and the “UGT1A1, in vitro study” value (UGT1A1 [11]) is given as “UGT1A1 ↓ (supersomes)”. For the same compound, the “UGT nonspecific, in vivo/ex vivo study” value (UGT nonspecific [7]) was “UGT nonspecific ↑ (rat)”, the “UGT1A1, in vitro study” value (UGT1A1 [12]) was “UGT1A1 ↑ (mammalian cells)” and the “UGT1A3, in vitro study” value (UGT1A3) was “UGT1A3 ↓ (supersomes)”. For the same compound, the “UGT1A9, in vitro study” value (UGT1A9; RLM) was “UGT1A9 ↓ (HLM, RLM, supersomes)” and the “UGT1A6, in vitro study” value (UGT1A6 [13]) was “UGT1A6 ↑ (mammalian cells)”.
For `CCC1CN2CCc3c([nH]c4cccc(OC)c34)C2CC1/C(=C\OC)C(=O)OC` (stereo not drawn) [mitragynine], the “inhibition of 4MU glucuronidation in HLM” value (UGT enzymes; at a concentration of 1 μM) is given as “approximately 30 % of control activity”, the IC50 (UGT enzymes; read-out: IC50 for 4MU glucuronidation in HLM) is given as greater than 1000 µM and the IC50 (UGT2B7 [4]; [20]) is given as 8.11 ± 4.48 µM. It also gave an IC50 (UGT2B7 [4]; [21]) of less than 100 µM, an IC50 at 90 min (UGT2B7 [5]; pH 7.4, IC50 for inhibition of ZDV glucuronidation in RLM, rat liver microsomes, ZDV as probe substrate, 1% (w/v) BSA) of 51.2 ± 5.95 µM and an IC50 at 90 min (UGT2B7 [5]; pH 7.4, concentration inhibiting ZDV glucuronidation in RLM higher than 50% (screening), screening at 1 µM, 10 µM and 100 µM) of less than 100 µM. For the same compound, the “UGT nonspecific, in vivo/ex vivo study” value (UGT nonspecific [7]) was “UGT nonspecific ↑ (rats)” and the maximum plasma concentration ([9]; M. speciosa tea with 11 mg mitragynine for seven days then 23 mg on the eighth day) was 0.105 µg/mL and 0.26 µM.
In the case of `Cc1cn([C@H]2C[C@H](N=[N+]=[N-])[C@@H](CO)O2)c(=O)[nH]c1=O` [zidovudine, 3′-Azido-3′-deoxythymidine], the “in vivo systemic clearance” value ([14]; for 70 kg of man) is listed as 1.01 L/h/kg, the “dose excreted as glucuronides” value [14] is listed as “approximately 75%” and the Km at 90 min (UGT2B7 [15]; with 1% BSA, mean ± SD) is listed as 6.77 ± 0.6 mM. For the same compound, the Km at 90 min (UGT2B7 [15]; without 1% BSA, mean ± SD) was 8.84 ± 1.19 mM, the microsomal CLint (UGT2B7 [15]; with 1% BSA) was 0.16 µL/min/mg and the microsomal CLint (UGT2B7 [15]; without 1% BSA) was 0.09 µL/min/mg. The Vmax (UGT2B7 [15]; without 1% BSA, mean ± SD) was 770 ± 39.82 pmol/mg/min, the microsomal CLint (UGT2B7 [16]; with 1% BSA) was 1.65 µL/min/mg and the microsomal CLint (UGT2B7 [16]; without 1% BSA) was 0.32 µL/min/mg. The Km at 120 min (UGT2B7 [16]; with 1% BSA) was 0.88 ± 0.05 mM, the Km at 120 min (UGT2B7 [16]; without 1% BSA) was 3.4 ± 0.7 mM and the “in vivo systemic clearance” value ([17]; for 0.25 kg of rat) was 0.18 L/h/kg. For the same compound, the “dose excreted as glucuronides” value [17] was roughly 10%.
In the case of `O=c1c(O)c(-c2ccc(O)cc2)oc2cc(O)cc(O)c12` [Kaempferol], the “UGT1A1, in vivo/ex vivo study” value (UGT1A1 [18]) is listed as “UGT1A1 ↑ (mice)”, the “UGT nonspecific, in vitro study” value (UGT nonspecific [10]) is listed as “UGT nonspecific ↑ (mammalian cells)” and the “UGT2B7, in vitro study” value (UGT2B7 [1]; ref 26-30 (kaempferol), 35-37 (mitragynine)) is listed as “UGT2B7 ↓ (supersomes)”. The “UGT1A1, in vitro study” value (UGT1A1 [11]) was “UGT1A1 ↓ (supersomes)”, the “UGT1A1, in vitro study” value (UGT1A1 [12]) was “UGT1A1 ↑ (mammalian cells)” and the “UGT1A6, in vitro study” value (UGT1A6 [19]) was “UGT1A6 ↓ (supersomes)”. The “UGT1A3, in vitro study” value (UGT1A3) was “UGT1A3 ↓ (supersomes)”, the “UGT2B10, in vitro study” value (UGT2B10) was “UGT2B10 ↓ (supersomes)” and the “UGT1A9, in vitro study” value (UGT1A9; HIM) was “UGT1A9 ↓ (HLM, HIM, supersomes)”.
For “kaempferol-3-O-rutinoside [kaempferol-3-rutinoside]”, the “inhibition of UGT enzymes in HLM with 4MU as substrate (in words)” value (UGT enzymes) is listed as “did not significantly inhibit”.
